{
  "source": "patent EP0287128A1",
  "about": "“Antitumor agent” (RESEARCH CORPORATION TECHNOLOGIES, INC., priority 1987, dated 1988)",
  "key": {"[1]": {"test": "in vivo", "settings": "mouse, in vivo", "excerpt": "(§1) The tumor tissue was obtained from mice bearing 7 to 10 day old tumors. To obtain the tumors, the animals were sacrificed by cervical dislocation. Tumors were removed aseptically and placed into petri dishes containing ice-cold phosphate buffered saline. Tumors were debrided, necrotic tissue was removed and viable tissue was cut into 2-3 mm fragments. These fragments were loaded into 13-gauge trochars for implantation. Animals were weighed prior to each i.p. injection, which began one day after implantation unless otherwise noted, so that the volume of injection could be adjusted to their individual weight.\n(§2) Animals were implanted with Lewis lung carcinoma. Five animals were given FdC (12mg/kg) + H₄U 25mg/kg + BAU 9mg/kg 1/day × 7 days starting on day 1. Comparisons included FUra (25mg/kg) and FUra + BAU (10mg/kg).\n(§3) Animals were implanted with Lewis lung carcinoma. Seven animals were given FdC (12mg/kg) + H₄U (25mg/kg) + BAU (30mg/kg). Comparisons included FUra 25 mg/kg and FUra + BAU (30mg/kg). The treatment schedule was as in Example 1A.\n(§4) Animals were implanted with Lewis lung carcinoma. The treatment schedule was as described above. A comparison was made with FdU tested at its maximum tolerated dose, 75mg/kg. […] \"Day of breakout\" indicates the day tumor growth was first noticed in a group of animals in which tumor growth was arrested or in which tumor regression occurred.\n(§5) Mice were implanted bilaterally with Lewis lung carcinoma (see Table 3).\n(§6) Animals were implanted with Lewis lung carcinoma (see Table 4)."}, "[2]": {"test_system": "Lewis lung carcinoma", "test": "in vivo", "excerpt": "as §1, §2, §3, §4, §5, §6"}, "[3]": {"test_system": "mammary adenocarcinoma-755 in its ascitic form", "test": "Mammary adenocarcinoma-755, ascitic form, injected i.p. into mice", "assay_type": "in vivo, BD2F₁ mice", "settings": "for Day of Death / # Cures /6 mice / % Cures / mean day of death / Maximum Weight Loss / T/C: Table 7; for Day of Death: individual animals; for Day of Death / # Cures /6 mice / % Cures / mean day of death / T/C: mg/kg: FdC 12, H4U 25, BAU 10, FUra 26 (with BAU); for Maximum Weight Loss: mg/kg: FdC 12, H4U 25, BAU 10, FUra 26 (with BAU; alone not given); for T/C: not including cures", "excerpt": "Forty-eight hours later (day 2) treatment 1/day × 7) was initiated."}, "[4]": {"settings": "Table 3, one cycle (I) or no cycle mark, mg/kg: FdU 70, FdC 12, H4U 25, BAU 30 where given"}, "[5]": {"settings": "Example 2, BAU 30 mg/kg, H4U 25 mg/kg, administered without a fluorinated pyrimidine analog"}},
  "data": [
    {"smiles": "O=c1[nH]c(=O)n([C@H]2C[C@H](O)[C@@H](CO)O2)cc1F", "note": "[FdU, 5-fluorodeoxyuridine]", "values": [
      {"measurement": "MTD at 7 days", "setting": "[1]", "value": 75, "unit": "mg/kg"},
      {"measurement": "% Tumor Inhibition", "setting": "[2]; Table 3, day 10, one cycle (I) or no cycle mark, mg/kg: FdU 70, FdC 12, H4U 25, BAU 30 where given", "value": 83, "unit": "%"},
      {"measurement": "% Tumor Inhibition", "setting": "[2]; Table 3, day 14, one cycle (I) or no cycle mark, mg/kg: FdU 70, FdC 12, H4U 25, BAU 30 where given", "value": 74, "unit": "%"},
      {"measurement": "% Tumor Inhibition", "setting": "[2]; Table 3, day 18, one cycle (I) or no cycle mark, mg/kg: FdU 70, FdC 12, H4U 25, BAU 30 where given", "value": 58, "unit": "%"},
      {"measurement": "% Tumor Inhibition", "setting": "[2]; Table 3, day 22, one cycle (I) or no cycle mark, mg/kg: FdU 70, FdC 12, H4U 25, BAU 30 where given", "value": 42, "unit": "%"},
      {"measurement": "% Tumor Inhibition", "setting": "[2]; Table 3, day 26, one cycle (I) or no cycle mark, mg/kg: FdU 70, FdC 12, H4U 25, BAU 30 where given", "value": 31, "unit": "%"},
      {"measurement": "% Tumor Inhibition", "setting": "[2]; Table 3, day 38, one cycle (I) or no cycle mark, mg/kg: FdU 70, FdC 12, H4U 25, BAU 30 where given", "value": 19, "unit": "%"},
      {"measurement": "T/C", "setting": "[2]; Table 3, mean day of death T/C, one cycle (I) or no cycle mark, mg/kg: FdU 70, FdC 12, H4U 25, BAU 30 where given, * not including cures", "value": 1.24},
      {"measurement": "# Cures /6", "setting": "[2]; [4]", "value": 0},
      {"measurement": "# Toxic Deaths /6", "setting": "[2]; [4]", "value": 0},
      {"measurement": "Maximum % Weight Loss", "setting": "[2]; [4]", "value": 19, "unit": "%"},
      {"measurement": "Mean Day of Death", "setting": "[2]; Table 3, one cycle (I) or no cycle mark, mg/kg: FdU 70, FdC 12, H4U 25, BAU 30 where given, * not including cures, control 21.1", "value": 26.0}
    ]},
    {"smiles": "O=c1[nH]c(=O)n(COCCO)cc1Cc1ccccc1", "note": "[BAU, benzacyclouridine]", "values": [
      {"measurement": "cures", "setting": "[2]; [5]", "value": "no cures"},
      {"measurement": "mean day of death", "setting": "[2]; [5]", "value": "no increase"},
      {"measurement": "tumor inhibition", "setting": "[2]; [5]", "value": "no significant tumor inhibition"}
    ]},
    {"smiles": "O=c1[nH]cc(F)c(=O)[nH]1", "note": "[FUra, 5-fluorouracil]", "values": [
      {"measurement": "# of cures/6", "setting": "[3]; Table 6, inoculum 10^7 cells, mg/kg: FdC 12, H4U 25, BAU 10, FUra 25, FdU 60", "value": "No cures"},
      {"measurement": "Day of Death", "setting": "[3]; inoculum 5 x 10^5 cells", "value": "17,18 21,22"},
      {"measurement": "Day of Death", "setting": "[3]; inoculum 10^5 cells", "value": "17,19 21,33"},
      {"measurement": "# Cures /6 mice", "setting": "[3]; inoculum 5 x 10^5 cells", "value": 1},
      {"measurement": "% Cures", "setting": "[3]; inoculum 5 x 10^5 cells", "value": 17, "unit": "%"},
      {"measurement": "mean day of death", "setting": "[3]; inoculum 5 x 10^5 cells, control 12.5", "value": 19.2},
      {"measurement": "Maximum Weight Loss", "setting": "[3]; inoculum 5 x 10^5 cells", "value": 17.4},
      {"measurement": "# Cures /6 mice", "setting": "[3]; inoculum 10^5 cells", "value": 2},
      {"measurement": "% Cures", "setting": "[3]; inoculum 10^5 cells", "value": 33, "unit": "%"},
      {"measurement": "mean day of death", "setting": "[3]; inoculum 10^5 cells", "value": 20.0},
      {"measurement": "Maximum Weight Loss", "setting": "[3]; inoculum 10^5 cells", "value": 17.0},
      {"measurement": "T/C", "setting": "[3]; inoculum 5 x 10^5 cells", "value": 1.51},
      {"measurement": "T/C", "setting": "[3]; inoculum 10^5 cells", "value": 1.57},
      {"measurement": "cures", "setting": "[2]; Examples 1A and 1B together, i.p. 1/day x 7 days from day 1, mg/kg: FdC 12, H4U 25, BAU 9 or 30, FUra 25", "value": "No cures"}
    ]},
    {"smiles": "O=C1NC(O)CCN1[C@@H]1O[C@H](CO)[C@@H](O)[C@H]1O", "note": "(some centres unmarked) [H₄U, tetrahydrouridine]", "values": [
      {"measurement": "cures", "setting": "[2]; [5]", "value": "no cures"},
      {"measurement": "mean day of death", "setting": "[2]; [5]", "value": "no increase"},
      {"measurement": "tumor inhibition", "setting": "[2]; [5]", "value": "no significant tumor inhibition"}
    ]}
  ]
}
